Experimental data taken from ChEMBL document CHEMBL1150200, “Apotirucallane Triterpenes from Dysoxylum roseum” (1991).
Values after ≈ are worked out from the molar mass of the structure shown.

System: KB
Assay: Cytotoxicity against human KB cells
Assay type: functional
Settings: read-out: ED50 (the source's name)

CC(C)=CC1C[C@@H]([C@@H]2CC=C3[C@]4(C)C(=O)C[C@@H]5[C@](C)(C=CC(=O)[C@]5(C)CO)[C@H]4CC[C@]32C)CO1 (stereo partly specified) [DYSORONE E]
EC50: 3.5 µg/mL (≈ 7.5 µM)
